{"source": "paper PMC4783567", "about": "“The Effect of Vinpocetine on Human Cytochrome P450 Isoenzymes by Using a Cocktail Method” (Evidence-based Complementary and Alternative Medicine : eCAM, 2016)", "test_in_all_cases": "five-probe cocktail in human liver microsomes, LC-MS/MS of metabolites", "type_in_all_cases": "biochemical", "key": {"[1]": {"target": "T1, CYP2C9 (Homo sapiens, UniProt P11712)", "T1 construct": "native enzyme in pooled human liver microsomes (BD Gentest); activity read by tolbutamide 4-hydroxylation", "T1 sequence (P11712 whole entry)": "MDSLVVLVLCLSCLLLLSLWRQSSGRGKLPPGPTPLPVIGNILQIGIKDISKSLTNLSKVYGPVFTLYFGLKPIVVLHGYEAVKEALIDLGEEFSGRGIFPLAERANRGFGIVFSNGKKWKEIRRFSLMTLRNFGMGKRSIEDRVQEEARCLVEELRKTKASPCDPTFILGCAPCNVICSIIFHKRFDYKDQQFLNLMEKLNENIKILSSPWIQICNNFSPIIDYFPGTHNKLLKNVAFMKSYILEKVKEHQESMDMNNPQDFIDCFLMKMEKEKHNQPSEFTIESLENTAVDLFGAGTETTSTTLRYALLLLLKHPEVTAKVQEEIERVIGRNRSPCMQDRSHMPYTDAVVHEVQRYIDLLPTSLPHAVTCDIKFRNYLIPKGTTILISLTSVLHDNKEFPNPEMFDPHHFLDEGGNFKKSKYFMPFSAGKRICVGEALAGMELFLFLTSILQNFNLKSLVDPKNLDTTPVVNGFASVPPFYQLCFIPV", "details": "tolbutamide 4-hydroxylation, printed 100 mM tolbutamide (unit as printed), 1 mM NADPH, 3.3 mM MgCl2, pH 7.4, 37°C, 30 min; b29 prints 68.91; Table 2 prints vinpocetine in μg/mL, methods in μM", "source_text": "five-probe cocktail in human liver microsomes, LC-MS/MS of metabolites on CYP2C9"}, "[2]": {"target": "T2, CYP2C19 (Homo sapiens, UniProt P33261)", "T2 construct": "native enzyme in pooled human liver microsomes (BD Gentest); activity read by omeprazole 5-hydroxylation", "T2 sequence (P33261 whole entry)": "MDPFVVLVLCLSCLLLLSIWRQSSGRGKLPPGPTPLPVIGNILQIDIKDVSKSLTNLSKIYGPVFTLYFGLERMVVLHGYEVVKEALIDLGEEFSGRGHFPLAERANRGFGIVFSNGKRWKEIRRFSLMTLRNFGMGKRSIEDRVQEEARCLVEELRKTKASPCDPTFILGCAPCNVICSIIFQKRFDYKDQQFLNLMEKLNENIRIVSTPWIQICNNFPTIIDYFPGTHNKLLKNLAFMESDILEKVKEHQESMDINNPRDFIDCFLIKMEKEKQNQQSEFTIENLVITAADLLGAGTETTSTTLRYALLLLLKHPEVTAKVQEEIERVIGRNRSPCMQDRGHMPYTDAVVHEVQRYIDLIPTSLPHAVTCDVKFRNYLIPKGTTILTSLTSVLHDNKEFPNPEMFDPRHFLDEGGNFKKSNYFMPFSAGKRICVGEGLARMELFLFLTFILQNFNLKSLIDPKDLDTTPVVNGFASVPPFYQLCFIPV", "details": "omeprazole 5-hydroxylation, printed 50 mM omeprazole (unit as printed), 1 mM NADPH, pH 7.4, 37°C; unreliable (extrapolated above top concentration 100 μM; text says > 100 μM)", "source_text": "five-probe cocktail in human liver microsomes, LC-MS/MS of metabolites on CYP2C19"}, "[3]": {"target": "T3, CYP2D6 (Homo sapiens, UniProt P10635)", "T3 construct": "native enzyme in pooled human liver microsomes (BD Gentest); activity read by dextrorphan formation from dextromethorphan", "T3 sequence (P10635 whole entry)": "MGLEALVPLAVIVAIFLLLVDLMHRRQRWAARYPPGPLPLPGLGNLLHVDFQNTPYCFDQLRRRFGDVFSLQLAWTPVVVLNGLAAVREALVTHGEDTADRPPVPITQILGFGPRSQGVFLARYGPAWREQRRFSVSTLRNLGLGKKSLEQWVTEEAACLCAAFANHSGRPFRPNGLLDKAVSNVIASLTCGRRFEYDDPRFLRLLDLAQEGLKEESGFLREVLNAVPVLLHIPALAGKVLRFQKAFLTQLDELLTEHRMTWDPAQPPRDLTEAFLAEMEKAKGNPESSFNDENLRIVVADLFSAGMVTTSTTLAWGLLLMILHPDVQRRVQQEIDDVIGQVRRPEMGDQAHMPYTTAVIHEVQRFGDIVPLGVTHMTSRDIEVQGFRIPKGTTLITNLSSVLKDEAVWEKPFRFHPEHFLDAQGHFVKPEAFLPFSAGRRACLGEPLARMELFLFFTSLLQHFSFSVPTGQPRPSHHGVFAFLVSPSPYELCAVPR", "details": "dextrorphan formation, printed 5 mM dextromethorphan (unit as printed), 1 mM NADPH, pH 7.4, 37°C; unreliable (extrapolated above top concentration 100 μM; text says > 100 μM)", "source_text": "five-probe cocktail in human liver microsomes, LC-MS/MS of metabolites on CYP2D6"}, "[4]": {"target": "T4, CYP3A4 (Homo sapiens, UniProt P08684)", "T4 construct": "native enzyme in pooled human liver microsomes (BD Gentest); activity read by testosterone 6beta-hydroxylation (CYP3A5 may contribute)", "T4 sequence (P08684 2-503)": "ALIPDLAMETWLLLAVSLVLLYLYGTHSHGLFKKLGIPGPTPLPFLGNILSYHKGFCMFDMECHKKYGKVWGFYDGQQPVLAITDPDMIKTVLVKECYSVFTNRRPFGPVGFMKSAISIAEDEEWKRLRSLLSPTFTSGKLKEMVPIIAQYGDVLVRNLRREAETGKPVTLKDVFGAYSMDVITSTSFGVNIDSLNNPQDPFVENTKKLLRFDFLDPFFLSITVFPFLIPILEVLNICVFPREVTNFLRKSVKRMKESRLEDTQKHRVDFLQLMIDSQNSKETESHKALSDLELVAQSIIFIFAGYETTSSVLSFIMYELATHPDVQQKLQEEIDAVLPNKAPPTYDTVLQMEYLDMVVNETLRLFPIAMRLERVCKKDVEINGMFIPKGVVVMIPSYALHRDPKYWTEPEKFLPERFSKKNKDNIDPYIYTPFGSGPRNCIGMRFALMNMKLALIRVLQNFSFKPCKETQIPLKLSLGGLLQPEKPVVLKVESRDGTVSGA", "details": "testosterone 6β-hydroxylation, printed 50 mM testosterone (unit as printed), otherwise as row above; unreliable (extrapolated above top concentration 100 μM; text says > 100 μM)", "source_text": "five-probe cocktail in human liver microsomes, LC-MS/MS of metabolites on CYP3A4"}, "[5]": {"target": "T5, CYP2E1 (Homo sapiens, UniProt P05181)", "T5 construct": "native enzyme in pooled human liver microsomes (BD Gentest); activity read by chlorzoxazone 6-hydroxylation", "T5 sequence (P05181 whole entry)": "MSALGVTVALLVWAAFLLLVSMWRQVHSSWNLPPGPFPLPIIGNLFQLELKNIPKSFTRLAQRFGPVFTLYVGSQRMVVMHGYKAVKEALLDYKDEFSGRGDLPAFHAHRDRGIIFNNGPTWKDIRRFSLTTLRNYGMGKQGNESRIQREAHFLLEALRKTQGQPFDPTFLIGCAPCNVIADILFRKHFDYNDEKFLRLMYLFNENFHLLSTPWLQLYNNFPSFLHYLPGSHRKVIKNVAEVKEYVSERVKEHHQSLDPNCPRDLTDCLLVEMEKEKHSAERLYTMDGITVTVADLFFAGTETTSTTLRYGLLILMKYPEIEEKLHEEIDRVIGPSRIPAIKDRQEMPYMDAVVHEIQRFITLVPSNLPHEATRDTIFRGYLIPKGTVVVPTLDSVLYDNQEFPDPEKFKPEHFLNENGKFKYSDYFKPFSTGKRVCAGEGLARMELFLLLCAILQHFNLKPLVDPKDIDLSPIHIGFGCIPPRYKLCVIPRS", "details": "chlorzoxazone 6-hydroxylation, printed 50 mM chlorzoxazone (unit as printed), 1 mM NADPH, pH 7.4, 37°C; unreliable (extrapolated above top concentration 100 μM; text says > 100 μM)", "source_text": "five-probe cocktail in human liver microsomes, LC-MS/MS of metabolites on CYP2E1"}}, "data": [{"compound": "CCOC(=O)C1=C[C@]2(CC)CCCN3CCc4c(n1c1ccccc41)[C@@H]32", "note": "[Vinpocetine, ethyl (3α,16α)-eburnamenine-14-carboxylate]", "values": [{"measurement": "IC50 (μM)", "setting": "[1]", "value": "68.96 [95% CI: 49.14–96.79] μM"}, {"measurement": "IC50", "setting": "[2]", "value": 285.1, "unit": "µM"}, {"measurement": "IC50", "setting": "[3]", "value": 104.4, "unit": "µM"}, {"measurement": "IC50", "setting": "[4]", "value": 107.1, "unit": "µM"}, {"measurement": "IC50", "setting": "[5]", "value": 2837, "unit": "µM"}]}]}
